≈ marks a conversion by molar mass, not a printed value.
Legend:
[1] = Microsomal stability assay, mouse liver microsomes; type: in vitro ADME; conditions: 10 μM test compound, 0.5 mg/mL protein, 37° C.; for half-life at 10 μM: mouse, liver microsomes, pH 7.4, read-out: Half-life (min) (MLM)
Description: (§1) 4 μL of 1 mM test compound at a final concentration of 10 μM dissolved in DMSO/ACN/Methanol/Ethanol was preincubated at 37° C. for 5 minutes on a digital heating shaking dry bath (Fischer scientific, Pittsburgh, Pa.) in a mixture containing 282 μL of water, 80 μL of phosphate buffer (0.5 M, pH 7.4), 20 μL of NADPH Regenerating System Solution A (BD Bioscience, San Jose, Calif.) and 4 μL of NADPH Regenerating System Solution B (BD Bioscience, San Jose, Calif.) in a total volume of 391.2 μL. Following preincubation, the reaction was initiated by addition of 8.8 μL of either human liver microsomes (BD Gentest, San Jose, Calif.), mouse liver microsomes (Life technologies, Rockford, Ill.), at a protein concentration of 0.5 mg/mL. Aliquots of 50 μL were taken at time intervals of 0 (without microsomes), 10, 20, 30, 40, 50 and 60 minutes. Each aliquot was added to 100 μL of cold acetonitrile solution containing 1 μM/2 μM internal standard. This was followed by sonication for 10 seconds and centrifugation at 10,000 rpm for 5 minutes. 100 μL of the supernatant was transferred into Spin-X HPLC filter tubes (Corning Incorporated, NY) and centrifuged at 13,000 rpm for 5 minutes. […] The ratio of the peak areas of the internal standard and test compound was calculated for every time point and the natural log of the ratio were plotted against time to determine the linear slope (k). […] All experiments were repeated three times in duplicates.

[2] = Solubility of compounds in DI water; type: physicochemical; conditions: thermodynamic from solid; 2 mg in 2 mL DI water, sonicated at 60° C. for 2 hours, cooled to room temperature, filtered
Description: The solubility of the compounds was examined by sonicating 2 mg of each respective compound in 2 mL of DI water at 60° C. for 2 hours. Solutions were cooled to room temperature and then filtered using a syringe filter. The resultant solutions were injected into a mass spectrometer using a SIM method, calibrated to the respective retention times and mass units of each compound. Calibration curves using standard solutions (5 data points) of each compound dissolved in methanol were used to calculate the unknown aqueous concentrations of each compound.

[3] = Microsomal stability assay, human liver microsomes; type: in vitro ADME; conditions: 10 μM test compound, 0.5 mg/mL protein, 37° C.
Description: as §1

[4] = system: HEPG2 cell line; test: Cytotoxicity study, CellTiter-Glo cell viability; type: cell-based, Human; conditions: HEPG2, 48 hours incubation
Description: Reagents and Instrumentation: Human liver hepatocellular carcinoma (HEPG2) cell line was purchased (ATCC) and cultured in 75 cm2 flasks (CellStar). Cells were grown in DMEM/High Glucose (Hyclone, #SH3024301) media to which non-essential amino acids (Hyclone, #SH30238.01), 10 mM HEPES (Hyclone, #SH302237.01), 5×106 units of penicillin and streptomycin (Hyclone, #SV30010), and 10% of heat inactivated fetal bovine serum (Gibco, #10082147) were added. Cells were harvested using 0.05% Trypsin (Hyclone, #SH3023601), which disrupts the cell monolayer and proteolytically cleaves the bonds between the cells and flask. The cell viability assay was evaluated using CellTiter-Glo™ Luminescent Cell Viability Assay Kit (Promega, Madison, Wis.) which contains luciferase and all its substrate except ATP. The controls for the cytotoxicity assay used were (E)-10-(bromotriphenylphosphoranyl)decyl 4-(4-(tert-butyl)phenyl)-4-oxobut-2-enoate (400 μM in DMSO, positive control) and DMSO (negative control). Cell culture was performed in a Baker Company Class II Biological Safety Cabinet. All luminescence readings were performed on a Tecan Infinite M1000 plate reader. Small volume transfers were performed on the Tecan Freedom EVO liquid handling system with a 100 nL pin tool transfer (V&P Scientific). Serial dilutions were done in 96-well polypropylene plates (Corning, #3365) and assays were conducted in 384-well white optical bottom plates.
Luminescence-Based VDR-Mediated Transcription Assay Protocol: After 48 hours of incubation at 37 °C with 5% CO2, the cells were harvested with 4 mL of 0.05% Trypsin, added to 10 mL of the assay buffer, DMEM/High Modified buffer without phenol red, and spun down for 3 minutes at 1000 rpm. The media was removed and cells were resuspended in the DMEM assay media. To each well, 40 μL of cells were added to yield a final concentration of 15,000 cells per well. The plates were then spun down for 2 minutes at 1000 rpm. After 2 hours, plated cells were treated with 100 nL×4 of small molecules and controls which were added using the pin tool. After 48 hours of incubation at 37 °C with 5% CO2, 20 μL of Cell Titer-Glo™ Luminescence Assay Kit (cytotoxicity assay) were added and luminescence was read. Controls were measured within each plate to determine the z′ factor (Equation 1) and to enable data normalization. Three independent experiments were performed in quadruplicate and data was analyzed using nonlinear regression with variable slope (GraphPrism, Equation 2). The luminescence intensity of control (untreated) cells was taken as 100% viability, and the relative cell viability compared to control was calculated. Data are presented as the means±SEM of a series of three experiments.

[5] = system: METH-impaired PPI in C57/B6 mice; test: PPI test, methamphetamine-impaired prepulse inhibition; type: in vivo, mouse; conditions: mice, compound 10 mg/kg i.p. 15 min before METH 2 mg/kg i.p.
Description: All animal experiments conducted at NTU were approved by the Institutional Animal Care and Use Committee of College of Medicine, National Taiwan University. C57/B6 (8-10 weeks) mice were used for the PPI test and Wistar rats (8-9 weeks) were used in the migraine model. Animals were housed in an animal room with a 12-h light/12-h dark cycle and free access to food and water.
The PPI test was conducted with a PPI apparatus (SR-LAB, San Diego Instruments, San Diego, Calif.) consisting of a startle chamber equipped with various programming acoustic stimulations. After acclimation, the mouse was gently placed in the startle chamber for a 4 min acclimation period with a background noise of 65 dB, which continued throughout the whole PPI test session. One PPI test session consisted of 4 types of startle trials, including the trial with the startle pulse (115 dB) alone (PULSEALONE; 115 dB, 20 ms), two trials with the startle pulse paired with 71 and 77 dB prepulses, respectively (PREPULSE+PULSE; 71 dB+115 dB and 77 dB+115 dB), and the trial without stimulus (NOSTIM; background 65 dB only). A test session started and ended, respectively, with four NOSTIM trials and four PULSEALONE trials. In between, each of the four types of trials was presented 14 times randomly, that is, 56 trials were given in a test session. The intertrial interval was given randomly from 5 to 20 s. In the PREPULSE+PULSE trial, a 71 or 77 dB prepulse was given 120 ms before the 115 dBpulse. The magnitude of PPI (PPI %) was determined, after summarizing the startle responses in PULSEALONE and PREPULSE+PULSE trials, according to the equation (PULSEALON−PREPULSE+PULSE)/PULSEALONE×100%. The tested compound or vehicle was given to the animal for 15 min, followed by methamphetamine (2 mg/kg). The PPI test was conducted 10 min after injection of methamphetamine. Data were expressed as the mean±S.E.M. Statistical comparisons among groups were analyzed by ANOVA with Tukey post hoc test, and differences between groups were analyzed by Student's t-test. Two-way ANOVA with Bonferroni's post hoc test was used to analyze differences in the time courses of locomotor activity among groups. Differences were considered significant if P<0.05.
Methamphetamine and apomorphine were dissolved in normal saline for i.p. And s.c. Injections, respectively. Tested compounds and haloperidol, when given by i.p. Injection, were dissolved in a vehicle containing 20% dmso, 20% Cremophor® el (polyoxyethylene castor, sigma-aldrich) and 60% normal saline. Furosemide was dissolved (20 nmole/μL) in dimethylsulfoxide for intra-cerebellar microinjection the i.p. or s.c. Injection volume was 10 mL/kg.

[6] = Half-life in liver microsomes (Example 4); type: in vitro ADME; conditions: rat and human liver microsomes, species of the value not stated
Excerpt: Metabolic pathways that may disrupt the activity of compounds with aryl methoxy groups were investigated.

| Structure (SMILES) | % left after 1 hr. (MLM) [1] [%] | half-life at 10 μM [1] [min] | solubility at 2 h [2] [µg/mL] | % left after 1 hr. (HLM) [3] [%] | Half-life (min) (HLM) [3] | toxicity at 400 μM [4] | rescue of METH-impaired PPI [5] | Half-life (min) (MLM) [1] | rescue of METH-impaired PPI ([5]; listed as 1-29) | half-life [6] [h] | half-life at 10 μM ([3]; human, liver microsomes, pH 7.4, read-out: Half-life (min) (HLM)) |
| --- | --- | --- | --- | --- | --- | --- | --- | --- | --- | --- | --- |
| [2H]C([2H])([2H])Oc1ccc(-n2nc3c4ccc(Br)cc4[nH]cc-3c2=O)cc1 [DK-I-58-1, 7-Bromo-2-(4-methoxy-d3-phenyl)-2,5-dihydro-3H-pyrazolo[4,3-c]quinolin-3-one] | 73.8 ± 0.15 | 140 ± 7.18 | 9.2 (≈ 24.7 µM) | 81.5 ± 0.11 | 204.6 ± 10 | non-toxic |  |  |  |  |  |
| [2H]C([2H])([2H])Oc1cccc(-n2nc3c4cc(Cl)ccc4[nH]cc-3c2=O)c1 [DK-I-59-1, 8-Chloro-2-(3-methoxy-d3-phenyl)-2,5-dihydro-3H-pyrazolo[4,3-c]quinolin-3-one] | 76.6 ± 0.11 | 166 ± 7.5 |  | 93 ± 0.09 | 649 ± 81 | non-toxic | effective |  |  |  |  |
| [2H]C([2H])([2H])Oc1ccc(-n2nc3c4ccc(OC([2H])([2H])[2H])cc4[nH]cc-3c2=O)cc1 [DK-I-60-3, 7-Methoxy-d3-2-(4-methoxy-d3-phenyl)-2,5-dihydro-3H-pyrazolo[4,3-c]quinolin-3-one] | 93.08 ± 0.19 |  | 16 (≈ 48.9 µM) | 91.51 ± 0.18 | 780.73 ± 238 | non-toxic |  | 846.85 ± 276 |  |  |  |
| COc1ccc(-n2nc3c4ccc(Br)cc4[nH]cc-3c2=O)cn1 [DK-II-48-1, 7-Bromo-2-(6-methoxypyridin-3-yl)-2,5-dihydro-3H-pyrazolo[4,3-c]quinolin-3-one] | 93.12 ± 0.22 |  |  | 93.4 ± 0.11 | 727.7 ± 115 | non-toxic |  | 680.6 ± 114 |  |  |  |
| [2H]C([2H])([2H])Oc1ccc2c3nn(-c4ccc(OC)cc4)c(=O)c-3c[nH]c2c1 [RV-I-029, 7-Methoxy-d3-2-(4-methoxyphenyl)-2,5-dihydro-3H-pyrazolo[4,3-c]quinolin-3-one] | 93.17 ± 016 |  |  | 95.35 ± 1 |  |  |  | 857.8 ± 235 | effective | > 50 | 2970 ± 742 |

— patent US10865203B2, “Ligands selective to alpha 6 subunit-containing GABAA receptors and their methods of use” (UWM Research Foundation, Inc., priority 2015, dated 2020)
